Source: a melting point compilation (Tetko et al.; mined from patent text by program, amines drawn as free bases though some values may be those of a salt)

SMILES | melting point
Cn1cnc(COc2nn3c(-c4ccccc4F)nnc3cc2C2(C)CCC(F)(F)CC2)n1 | 193 °C
CS(=O)(=O)c1ccc(-c2cc(COCCO)nn2CC2CCCCC2)cc1 | 73 to 75 °C
CC(=O)Nc1ccc(SCC(OS(C)(=O)=O)C(C)(C)C)cc1 (configuration not stated) | 123 to 124 °C
COc1cc(C(=O)N2CC3CC(C2)CN(C(C)C)C3)cc(OC)c1OC | 67.5 to 69.5 °C
COc1ccc2c(c1)CCN(C(C)=O)CC2 | 89 to 90 °C
C=CCn1c(C)nc2c1CCCC2=O | 78 °C
CC(NS(=O)(=O)c1ccc(Cl)cc1)P(=O)(OCCCl)OCCCl (configuration not stated) | 94.5 to 98 °C
CCOC1(OCC)OC(C)=C(C(=O)Nc2ccc(Cl)cc2)[C@@H](NC(C)=O)[C@@H]1C (relative stereo) | 199 to 201 °C
CNS(=O)(=O)c1cc(C2(O)CCC(=O)N2C)ccc1Cl (configuration not stated) | 147 to 150 °C
Cc1cc(C(=O)O)ccc1-c1cnc2[nH]c(=O)n(CC3CCCCC3)c2n1 | 244 to 247 °C
NC(=O)Oc1cccc2ccccc12 | 118 °C
Nc1c(N=Nc2ccc(Cl)cc2)ccc2c(S(N)(=O)=O)cccc12 | 258 °C
COCCO[C@@H]1c2ccn3c(Br)c(C)nc3c2N[C@H](c2ccccc2)[C@H]1O | 153 to 154 °C
CN(C)S(=O)(=O)c1cccc2cccc(O)c12 | 95 °C
CCC(C)OC(=O)N1CCC(c2nc3cc(-c4ccc(-n5cnnn5)cc4F)ccc3o2)CC1 (configuration not stated) | 118 to 122 °C
CN(C)CCCn1cc(-c2ccccc2)sc1=Nc1ccccc1 | 84 to 86 °C
Cc1nc2cc(NC(=O)c3cc4cc(F)ccc4n3Cc3cccc(F)c3)cnc2s1 | 264 to 265 °C
COc1ccc(/C=C/C(=O)Nc2ccc(C(=O)O)cc2)cc1OC | 258 to 259 °C
COC(=O)CCCCCCCNC(=O)C(COS(C)(=O)=O)NS(=O)(=O)c1ccc(Cl)cc1 (racemic) | 90 to 95 °C
O=C(O)c1ccc(C(=O)NS(=O)(=O)c2ccc(Cl)cc2)cc1 | 285 to 287 °C
CCCN(CCC)C(=O)n1ccc(S(=O)(=O)c2c(C)cc(C)cc2C)n1 | 64 to 65 °C
CN1Cc2c(Cl)ncn2-c2ccc(F)cc2C1=O | 217 to 218 °C
Fc1cccc(-c2nc(Nc3ccc(Cl)cc3)c3ccccc3n2)n1 | 118 to 121 °C
CC=CCN1CCNC1=C[N+](=O)[O-] | 82 to 85 °C
CCN(CC)Cc1nc(-c2ncn3c2CN(C)C(=O)c2cc(F)ccc2-3)no1 | 172 to 174 °C

SMILES | melting point
Nc1c2c(nc3ccccc13)-c1ccccc1SC2 | 211 to 212 °C
CC(C)n1nc(-c2c(-c3ccccc3)nn3ccc(O)cc23)ccc1=O | > 250 °C
CCN1CCN(Cc2ccc(-c3ccc4c(Nc5cc(OC)c(Cl)cc5Cl)c(C#N)cnc4c3)o2)CC1 | 157 to 160 °C
Cc1oc(-c2ccco2)nc1COc1ccc(CCCC2OC(=O)NC2=O)cc1O (configuration not stated) | 152 to 153 °C
COC(=O)Nc1nc2cc(C(c3cccc(Cl)c3)n3ccnc3)ccc2[nH]1 (configuration not stated) | 168 °C
Cc1cccc(C)c1N1C(=O)C(=O)N(C)C1=S | 144 to 146 °C
CCCc1nn(C)c2c(=O)n(CCCc3ccc(OC(C)(C)C(=O)O)cc3)c(C)nc12 | 104 to 106 °C
O=C(Nc1ccc(Cl)c(C(F)(F)F)c1)N1COc2cc(OCc3ccccc3)ccc21 | 135 to 136 °C
COc1ccccc1C1=C(NC(=O)Nc2ccc(N(C)C)cc2)SCc2ccccc21 | 128 to 130 °C
CCCn1c(=O)c2[nH]c(/C=C/c3ccccc3)nc2n(CCC)c1=O | 259 to 261 °C
O=[N+]([O-])c1cc(SC(F)(F)F)[nH]c1-c1ccc(Cl)cc1 | 143 to 145 °C
O=C1NCCc2c(OCC(O)CN3CCCCC3)cccc21 (configuration not stated) | 162 to 164 °C
CCCCc1nc2cccc(CC(=O)O)c2n1Cc1ccc(-c2ccccc2-c2nnn[nH]2)cc1 | 170 to 171 °C
COc1cccc2c(=O)n(C(C)(C)C(=O)O)c(=O)[nH]c12 | 255 to 258 °C
O=C(On1nnc2ccccc21)c1ccc2c(c1)OC(c1ccccc1)(c1ccccc1)O2 | 158 to 160 °C
O=C(NCc1ccc(Cl)cc1)c1nn(-c2ccccc2)c2sc(CN3CCOCC3)cc2c1=O | 182 to 184 °C
NC(=O)COc1ccc(CN2C(=O)C3(COc4cc5c(cc43)OCCO5)c3ccccc32)cc1 (configuration not stated) | 225 to 227 °C
CCOc1ccccc1NC=C1C(=O)N(c2ccc(S(=O)(=O)N3CCCCC3)cc2)N=C1C | 252 °C
Cc1cccc(-c2n[nH]cc2-c2ccc(F)c(-c3ccc(S(N)(=O)=O)c(C(F)(F)F)c3)c2)n1 | 107 to 110 °C
CC(=O)Nc1ncc(S(=O)(=O)NCC(O)(Cn2cncn2)c2ccc(Cl)cc2Cl)s1 (configuration not stated) | 96 to 112 °C
CNC(=O)c1cc(F)ccc1CNC(=O)c1nc2n(c(=O)c1OCc1ccccc1)CCN2c1ccccc1 | 194 to 195 °C
O=C(NCCc1ccc(Cl)cc1)C1=C(NCCc2ccc(Cl)cc2)CS(=O)(=O)N(Cc2ccc(Cl)c(Cl)c2)c2ccccc21 | 119 to 121 °C
CCCc1ccc(OCc2ccc(OCc3nc(-c4ccccc4)oc3C)cc2)c(CC(=O)O)c1 | 116 to 117 °C
Cc1cccc(NC(=O)NCC(=O)N(c2ccccc2)C(C(=O)OC(C)(C)C)c2cccc(Br)c2)c1 (racemic) | 103 °C
COc1cc2c(Nc3ccc(Cl)cc3F)ncnc2cc1OCCCC(=O)N1CCCC1 | 254 to 256 °C

SMILES | melting point
Cc1c(C(=O)Nc2ccc(N3CCN(CCO)CC3)c(C#N)c2)cnn1-c1ccc(F)c(F)c1 | 164 to 165 °C
O=C1COCC2=C1C(c1ccc(F)c(I)c1)C1=C(CCS1)N2 (configuration not stated) | > 260 °C
N#Cc1cnn(-c2ccc(NN)nn2)c1N | 264 to 266 °C
CC(C)OC(=O)N1CCC(c2ccc3oc(-c4ccc(S(C)(=O)=O)cc4F)nc3c2)CC1 | 151 to 156 °C
COc1ccc(C(=O)NCc2ccccc2)c2c1oc1ccc(N)cc12 | 228 °C
COc1cc(N)c(Cl)cc1C(=O)NCC1CCN(CCCCCCOCc2ccccc2)CC1 | 91 to 95 °C
OCCC#Cc1cnc2ccccc2c1 | 95.7 to 96.7 °C
CC(C)(C)C(NC(=O)CCc1ccccc1)Nc1c(Nc2cccnc2)c(=O)c1=O (configuration not stated) | 219 to 220 °C
O=C(O)CNC(=O)c1nc2ccc(Oc3ccccc3)cc2cc1O | 225 to 227 °C
CCc1cc2c(s1)-n1c(C3CCCCC3)nnc1C(N)N=C2c1ccccc1Cl (configuration not stated) | 175 to 176 °C
OCC1C2OCC(O2)C(OCc2ccccc2)C1O (configuration not stated) | 111 to 113 °C
COc1ccc(C(=O)N(c2ccccc2)c2ccc(OCCCN(C)C)cc2)cc1 | 111 to 115 °C
CNC(=O)c1cc(-c2ccc(OC)cc2)nn(CC2CC2)c1=O | 137 to 138 °C
CCCN1CCOc2cccc3nc4c(c1c23)CCCC4 | 74.5 to 75.5 °C
CS(=O)(=O)N1CCN([C@@H](CNS(=O)(=O)c2ccc(OCc3ccc(C#N)cc3)cc2)C(=O)NO)CC1 | 108 °C
CC(=O)NC[C@H]1CN(c2ccc(/C=C3\C(=O)N(c4ccccc4)N=C3C(C)(C)C)cc2)C(=O)O1 | 70 °C
O=S(=O)(CI)c1ncc(Cl)cn1 | 152 °C
COCCN1CCN(CCc2ccc(Nc3ncc4c(n3)-c3ccccc3C(c3ccccc3)C4)cc2)CC1 (configuration not stated) | 52 to 54 °C
COc1ccc(C2=NN(Cc3ccc(OCCCCBr)cc3)C(=O)[C@@H]3CC=CC[C@H]23)cc1OC | 42 to 46 °C
O=C(O)Cc1cccc(OCCCNCC(c2ccccc2)c2ccccc2)c1 | 49.1 °C
CC(C)(C)OC(=O)NCC(=O)N1[C@@H](C(=O)OC(C)(C)C)CC[C@H]1c1ccccc1 (racemic) | 112 °C
COC(=O)c1cc(Cl)c(C)c(N)c1Cl | 53 to 55 °C
O=C(O)c1ccc(N2C(=O)C3C4C=CC(CC4)C3C2=O)cc1 (configuration not stated) | 269 °C
CC(C)Nc1nc(-n2cccn2)nc(Cl)c1-c1c(F)cccc1Cl | 94 to 98 °C
CCOC(=O)/C=C/c1c(-c2ccc(F)cc2)n(C(C)C)c(=O)c2ccccc12 | 167 to 169 °C

SMILES | melting point
CCC1CCCCN1C(=O)Nc1ccccc1CCc1cc(C(C)(C)C)c(O)c(C(C)(C)C)c1 (configuration not stated) | 137 to 138 °C
O=[N+]([O-])c1ccccc1-c1nnc(-c2ccc(C3OCCO3)cc2)o1 | 88 to 89 °C
CC(C(=O)c1ccccc1)N1CCN(c2nc3nccc(-c4ccncc4)n3n2)CC1 (configuration not stated) | 142 to 144 °C
COc1cc2c(cc1OC)[C@@H]1CCCC[C@@H]1N=C2c1ccc(NC(C)=O)cc1 (racemic) | 218 °C
CCCCn1nc(SCCCCCC(=O)O)c(C(=O)O)c1Cc1cc2c(cc1Cl)OCO2 | 70 °C
COC(C)(OC)C(C#N)=Cc1ccccc1 | 45 to 46 °C
COc1ccc(C2(CCCCl)S(=O)(=O)CCCS2(=O)=O)cc1OC | 183 to 184 °C
COc1ccc(C2=CC(=O)CC2)cc1OC1CCCC1 | 136 to 137 °C
CC(=O)OC1C(OC(=O)c2cccc([N+](=O)[O-])c2)C=C(C)C(=O)CC1(C)C (configuration not stated) | 108 to 110 °C
Cn1c(CC(=O)O)ccc1C(=O)c1ccc(F)cc1 | 164 to 165 °C
CCCCCCCCCCC(C)(C)NC(=O)Nc1cc(OC)cc(C(C)(C)C)c1O | 99 to 102 °C
CCOC(=O)C1=Cc2ccsc2S(=O)(=O)N1CCCOC | 82 to 83 °C
O=C1Nc2cccnc2Nc2ccc(Br)cc21 | 187 to 188 °C
CC(C)[C@H](S)C(=O)NC(C)(C)C(=O)N[C@@H](Cc1ccc(O)cc1)C(=O)O | 180 to 181 °C
CS(=O)c1n[nH]c2ccc(Cl)cc2c1=O (configuration not stated) | 267 to 272 °C
CCOC(=O)[C@H](CCc1ccccc1)NC(=O)C(C)(C)NC(=O)[C@@H](S)C1CCOCC1 | 157 to 158 °C
CCOC(=O)CNC(=O)CC(O)CBr (configuration not stated) | 59 to 61 °C
COc1ccc(N)c(OCC(N)=O)c1 | 139 to 140 °C
C1=C(c2ccccc2)CC(CN2CCN(c3ccccn3)CC2)CC1 (configuration not stated) | 96 to 98 °C
CC(=O)Nn1c(-c2ccccc2)nc2cc(C(F)(F)F)ccc21 | 150 to 154 °C
CN1CCC(Oc2ccc3ccccc3n2)(c2ccccc2)CC1 | 80 to 81 °C
[O-][N+]1=C(c2ccccc2)c2cc(Cl)ccc2C=CC1 | 122 to 123 °C
